# Measurements: patent publication US12391697B2, “Condensed bi-heterocycles as inhibiting agents for Bruton's tyrosine kinase” (BIOGEN MA INC., priority 2019, dated 2025)
# Structures can show the parent of a compound that is named as a salt.
# Target: BTK (Homo sapiens (Human), UniProt Q06187)
# Test: In Vitro BTK Kinase Assay: Btk-PolyGAT-LS Assay
# Assay type: biochemical
# Conditions: active BTK enzyme 0.25 nM, ATP 10 μM, polyGAT 100 nM, 30 minutes
# Experimental: In Vitro BTK Kinase Assay: Btk-PolyGAT-LS Assay
# The purpose of the BTK in vitro assay is to determine compound potency against BTK through the measurement of IC50. […] The BTK kinase reaction was done in a black 96 well plate (costar 3694). For a typical assay, a […] aliquot of a ATP/peptide master mix (final concentration; ATP 10 μM, polyGAT 100 nM) in kinase buffer (10 mM Tris-HCl pH 7.5, 10 mM MgCl2, 200 μM […], 5 mM DTT, 0.01% Triton X-100, and 0.2 mg/ml casein) is added to each well. Next, […] of a 4-fold, 40× compound titration in 100% DMSO solvent is added, followed by adding 15 uL of BTK enzyme mix in 1× kinase buffer (with a final concentration of 0.25 nM). The assay is incubated for 30 minutes before being stopped with […] of a 50 mM EDTA solution. Aliquots (5 uL) of the kinase reaction are transferred to a low volume white 384 well plate (Corning 3674), and […] of a 2× detection buffer (Invitrogen PV3574, with 4 nM Tb-PY20 antibody, Invitrogen PV3552) is added. The plate is covered and incubated for 45 minutes at room temperature. Time resolved fluorescence (TRF) on Molecular Devices M5 (332 nm excitation; 488 nm emission; 518 nm fluorescein emission) is measured.
# BTK, sequence (Q06187 whole entry): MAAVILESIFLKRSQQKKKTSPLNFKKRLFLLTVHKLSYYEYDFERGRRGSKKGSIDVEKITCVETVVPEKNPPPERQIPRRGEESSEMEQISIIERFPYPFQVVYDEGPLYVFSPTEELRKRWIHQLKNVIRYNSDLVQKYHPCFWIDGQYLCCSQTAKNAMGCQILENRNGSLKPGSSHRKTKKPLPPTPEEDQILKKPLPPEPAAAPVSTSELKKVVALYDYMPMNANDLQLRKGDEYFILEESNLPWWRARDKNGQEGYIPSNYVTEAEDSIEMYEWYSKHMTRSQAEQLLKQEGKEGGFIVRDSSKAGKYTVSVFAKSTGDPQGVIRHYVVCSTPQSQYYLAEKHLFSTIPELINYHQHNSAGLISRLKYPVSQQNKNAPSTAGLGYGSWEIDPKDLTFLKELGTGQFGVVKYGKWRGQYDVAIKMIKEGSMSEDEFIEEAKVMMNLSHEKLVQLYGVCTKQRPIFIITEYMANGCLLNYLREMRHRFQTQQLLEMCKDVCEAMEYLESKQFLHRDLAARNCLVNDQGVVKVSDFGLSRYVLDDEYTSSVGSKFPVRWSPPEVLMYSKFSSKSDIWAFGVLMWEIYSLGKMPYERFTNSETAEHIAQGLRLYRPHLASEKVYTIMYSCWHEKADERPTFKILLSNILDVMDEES
row,Compound,IC50 [nM]
1,"CC(C)(C)c1noc(C(=O)NCc2ccc(-c3ncnn4cc(N5CCOCC5)cc34)cc2CC(F)F)n1 [Example 65, 3-(tert-butyl)-N-(2-(2,2-difluoroethyl)-4-(6-morpholinopyrrolo[2,1-f][1,2,4]triazin-4-yl)benzyl)-1,2,4-oxadiazole-5-carboxamide hydrochloride]",≤ 1
2,Cc1cc(-c2ncnn3cc(CC4CCOCC4)cc23)ccc1CNC(=O)c1noc(C(C)(C)C)n1 [Example 94],> 10
3,CC(C)(C)c1nc(C(=O)NCc2ccc(-c3ncnn4cc(N5CCOCC5)cc34)c(F)c2CC(F)F)no1 [Example 234],1 to 10
4,"Cc1cc(-c2ccnn3cccc23)ccc1CNC(=O)c1noc(C(C)(C)C)n1 [Example 17, 5-(tert-butyl)-N-(2-methyl-4-(pyrrolo[1,2-b]pyridazin-4-yl)benzyl)-1,2,4-oxadiazole-3-carboxamide]",1 to 10
5,CC(C)(C)c1nc(C(=O)NCc2ccc(-c3ncnn4cc(N5CCOCC5)cc34)cc2C(F)F)no1 [Example 220],≤ 1
6,CC(C)(C)c1nnc(C(=O)NCc2ccc(-c3ncnn4cc(N5CCOCC5)cc34)cc2C(F)F)o1 [Example 193],1 to 10
7,Cc1cc(-c2ncnn3cc(-c4cnn(CC(F)F)c4)cc23)ccc1CNC(=O)c1nnn(C(C)(C)C)n1 [Example 146],≤ 1
8,"Cc1cc(-c2ncnn3cc(C4=CCOCC4)cc23)ccc1CNC(=O)c1ccn(C(C)(C)C)n1 (single isomer, unassigned) [Example 127]",≤ 1
9,"Cc1cc(-c2ncnn3cc(C(=O)N(C)C)cc23)ccc1CNC(=O)c1noc(C(C)(C)C)n1 [Example 67, 5-(tert-butyl)-N-(4-(6-(dimethylcarbamoyl)pyrrolo[2,1-f][1,2,4]triazin-4-yl)-2-methylbenzyl)-1,2,4-oxadiazole-3-carboxamide hydrochloride]",≤ 1
10,Cc1cc(-c2ncnn3cc(N4CCn5ccnc5C4)cc23)ccc1CNC(=O)c1noc(C(C)(C)C)n1 [Example 120],≤ 1
11,Cc1cc(-c2ncnn3cc(-c4cnn(C)c4C)cc23)ccc1CNC(=O)c1coc(C(C)(C)C)n1 [Example 130],≤ 1
12,COc1c(CNC(=O)c2noc(C(C)(C)C)n2)ccc(-c2ncnn3cccc23)c1F [Example 180],1 to 10
13,Cc1cc(-c2ncnn3cc(N4CCN(C)C(=O)C4)cc23)ccc1CNC(=O)c1noc(C(C)(C)C)n1 [Example 177],≤ 1
14,Cc1cc2nccc(-c3ccc(CNC(=O)c4noc(C(C)(C)C)n4)c(C)c3)n2n1 [Example 46],> 10
15,"Cc1cc(-c2ncnn3cc(-c4cnn(C)c4)cc23)ccc1CNC(=O)c1noc(C(C)(C)CF)n1 [Example 41, 5-(1-fluoro-2-methylpropan-2-yl)-N-(2-methyl-4-(6-(1-methyl-1H-pyrazol-4-yl)pyrrolo[2,1-f][1,2,4]triazin-4-yl)benzyl)-1,2,4-oxadiazole-3-carboxamide]",≤ 1
16,Cc1cc(-c2ncnn3cc(-c4cnn(C)c4)cc23)ccc1CNC(=O)c1cn(C(C)(C)C)nn1 [Example 166],≤ 1
17,COc1c(CNC(=O)c2ccn(C(C)(C)C)n2)ccc(-c2ncnn3cc(N4CCOCC4)cc23)c1F [Example 202],1 to 10
18,CC(C)(C)c1nc(C(=O)NCc2ccc(-c3ncnn4cccc34)cc2C(F)(F)F)no1 [Example 179],1 to 10
19,Cc1c(CNC(=O)c2noc(C(C)(C)C)n2)ccc(-c2ncnn3cc(N4CCOCC4)cc23)c1F [Example 86],≤ 1
20,Cc1cc(-c2ncnn3cc(N4CCOCC4)cc23)ccc1CNC(=O)c1nc(C(C)(C)C)no1 [Example 105],≤ 1
21,COc1cc(-c2ncnn3cc(-c4cnn(C)c4)cc23)ccc1CNC(=O)c1nc(C(C)(C)C)no1 [Example 189],≤ 1
22,Cc1cc(-c2ncnn3cc(N4C[C@@H]5C[C@H]4CN5C)cc23)ccc1CNC(=O)c1noc(C(C)(C)C)n1 [Example 93],> 10
23,Cc1cc(-c2ncnn3cc(-c4cnsc4)cc23)ccc1CNC(=O)c1nc(C(C)(C)C)no1 [Example 173],≤ 1
24,CC(C)(C)c1nc(C(=O)NCc2ccc(-c3ncnn4cc(-c5cnn(CC(F)F)c5)cc34)cc2C(F)F)co1 [Example 210],≤ 1
25,Cc1cc(-c2ncnn3cccc23)ccc1CNC(=O)c1nnc(C(C)(C)C)o1 [Example 185],> 10
26,"Cc1cc(-c2ncnn3cc(N4CCO[C@@H](C)C4)cc23)ccc1CNC(=O)c1nc(C(C)(C)C)no1 (single isomer, unassigned) [Example 138]",≤ 1
27,"Cc1cc(-c2ccnn3cccc23)ccc1CNC(=O)c1nc(C(C)(C)C)no1 [Example 18, 3-(tert-butyl)-N-(2-methyl-4-(pyrrolo[1,2-b]pyridazin-4-yl)benzyl)-1,2,4-oxadiazole-5-carboxamide]",1 to 10

row,Compound,IC50 [nM]
1,Cc1cc(-c2ncnn3cc(N4CCN(C)C(C)C4)cc23)ccc1CNC(=O)c1nnn(C(C)(C)C)n1 (centres unmarked) [Example 98],≤ 1
2,Cc1cc(-c2ncnn3cc(N4CCOCC4)cc23)ccc1CNC(=O)c1ccn(C(C)(C)C)n1 [Example 175],1 to 10
3,Cc1cc(-c2ncnn3cc(-c4cnn(CC(F)F)c4)cc23)ccc1CNC(=O)c1cnn(C(C)(C)C)c1 [Example 145],≤ 1
4,CC(C)(C)n1cc(C(=O)NCc2ccc(-c3ncnn4cc(C5=CCOCC5)cc34)cc2C(F)F)cn1 [Example 208],≤ 1
5,Cc1cc(-c2ncnn3cc(C4=CCOCC4)cc23)ccc1CNC(=O)c1coc(C(C)(C)C)n1 [Example 124],≤ 1
6,CC(C)(C)c1nnc(C(=O)NCc2ccc(-c3ncnn4cc(N5CCOCC5)cc34)cc2Cl)o1 [Example 161],1 to 10
7,Cc1cc(-c2ncnn3cc(-c4cnn(C)c4C)cc23)ccc1CNC(=O)c1cnc(C(C)(C)C)o1 [Example 131],1 to 10
8,CC(C)(C)c1nc(C(=O)NCc2ccc(-c3ncnn4cc(N5CCOCC5)cc34)c(F)c2Cl)no1 [Example 154],≤ 1
9,Cc1cc(-c2ncnn3cc(C4=CCSCC4)cc23)ccc1CNC(=O)c1noc(C(C)(C)C)n1 [Example 101],≤ 1
10,CC(C)(C)n1cc(C(=O)NCc2ccc(-c3ncnn4cc(N5CCOCC5)cc34)cc2Cl)nn1 [Example 162],1 to 10
11,COC1CCN(c2cc3c(-c4ccc(CNC(=O)c5nc(C(C)(C)C)no5)c(C)c4)ncnn3c2)CC1 [Example 97],≤ 1
12,Cc1cc(-c2ncnn3cc(Br)cc23)ccc1CNC(=O)c1noc(C(C)(C)C)n1 [Example 51],1 to 10
13,CC(C)(C)c1nc(C(=O)NCc2ccc(-c3ncnn4cc(N5CCOCC5)cc34)cc2CC(F)F)no1 [Example 232],≤ 1
14,Cc1cc(-c2ncnn3cc(N4CCOC(C(C)C)C4)cc23)ccc1CNC(=O)c1nc(C(C)(C)C)no1 (centres unmarked) [Example 100],1 to 10
15,Cc1cc(-c2ncnn3cc(N4CCOCC4C)cc23)ccc1CNC(=O)c1noc(C(C)(C)C)n1 (centres unmarked) [Example 229],1 to 10
16,CC(C)(C)c1nc(C(=O)NCc2cc(F)c(-c3ncnn4cccc34)cc2Cl)co1 [Example 134],> 10
17,"Cc1cc(-c2ncnn3cc(C4CCOCC4)cc23)ccc1CNC(=O)c1nc(C(C)(C)C)no1 [Example 72, 3-(tert-butyl)-N-(2-methyl-4-(6-(tetrahydro-2H-pyran-4-yl)pyrrolo[2,1-f][1,2,4]triazin-4-yl)benzyl)-1,2,4-oxadiazole-5-carboxamide trifluoroacetate]",1 to 10
18,Cc1cc(-c2cc3c(-c4ccc(CNC(=O)c5noc(C(C)(C)C)n5)c(C)c4)ncnn3c2)ccn1 [Example 227],≤ 1
19,COc1c(CNC(=O)c2cn(C(C)(C)C)nn2)ccc(-c2ncnn3cc(-c4cnn(C)c4)cc23)c1F [Example 200],1 to 10
20,CC(C)(C)c1nc(C(=O)NCc2ccc(-c3ncnn4cccc34)cc2Cl)no1 [Example 178],1 to 10
21,Cc1cc(-c2ncnn3cccc23)ccc1CNC(=O)c1ccn(C(C)(C)C)n1 [Example 182],> 10
22,"COCc1cc2c(-c3ccc(CNC(=O)c4noc(C(C)(C)C)n4)c(C)c3)ncnn2c1 [Example 77, 5-(tert-butyl)-N-(4-(6-(methoxymethyl)pyrrolo[2,1-f][1,2,4]triazin-4-yl)-2-methylbenzyl)-1,2,4-oxadiazole-3-carboxamide hydrochloride]",1 to 10
23,Cc1cc(-c2ncnn3cccc23)ccc1CNC(=O)c1cnn(C(C)(C)C)c1 [Example 183],1 to 10
24,CC(C)(C)n1cc(C(=O)NCc2ccc(-c3ncnn4cc(N5CCOCC5)cc34)c(F)c2Cl)nn1 [Example 157],≤ 1
25,"Cc1cc(-c2ncnn3cc(-c4ncccn4)cc23)ccc1CNC(=O)c1noc(C(C)(C)C)n1 [Example 68, 5-(tert-butyl)-N-(2-methyl-4-(6-(pyrimidin-2-yl)pyrrolo[2,1-f][1,2,4]triazin-4-yl)benzyl)-1,2,4-oxadiazole-3-carboxamide hydrochloride]",≤ 1
26,Cc1cc(-c2ncnn3cc(N4CCN(C)C(C)C4)cc23)ccc1CNC(=O)c1noc(C(C)(C)C)n1 (centres unmarked) [Example 96],≤ 1
